Patent publication US20190046627A1, “USE OF A GNP-LLO91-99 COMPLEX FOR THE TREATMENT AND PREVENTION OF CANCER” (FUNDACIÓN INSTITUTO DE INVESTIGACIÓN MARQUES DE VALDECILLA, priority 2016, published 2019)
“Also recorded” adds a separate entry of the source. No end group written: not given here.

What was measured:
murine melanoma B16OVA [1] = experiment: Reduction of tumor size, monotherapy or combination with immunological control point immunotherapies (Example 4); format: in vivo, mice; details: s.c. B16OVA
Procedure: For the study of the reduction of the tumor in adults and increasing the survival making use of different immunotherapies with immunological control points and their comparison as a monotherapy or combination therapy with that of the invention, 5×10^5 cells of murine melanoma B16OVA were inoculated in a subcutaneous manner just like in FIG. 1 (Example 2). Following 7 days post-inoculation, 50 μg/ml of the therapy of the invention were inoculated in the tumors for 7 days as a monotherapy, GNP-LLO91-99 (gluconanoparticles synthesized with the peptide from listeriolysin O of Listeria monocytogenes, LLO91-99), or in combination with the following immunotherapies with immunological control points, anti-CTLA-4 or anti-PD-1 in a dose of 100 μg/mouse every 2 days up to a total of 7 days or no particle (NT).
Following this treatment, the mice were sacrifice at different times following the therapies, 14, 21 or 30 days in total. The results are shown in FIG. 3A following the sacrifice of the mice, recovery of the tumors and measuring of their size with a gauge. In another similar experiment, the mice are not sacrificed and the effect of the therapies is evaluated in the survival of the mice.

murine melanoma B16OVA [2] = experiment: Prevention of tumor growth, intraperitoneal melanoma after preventive treatment (Example 5); format: in vivo, mice
Procedure: For the comparative study of the prevention of tumor growth in adults between the therapy of the invention and known anti-tumor therapies, the following therapies (50 μg/ml) were inoculated in female adults of the C57BL/6 strain in an intraperitoneal manner: LLO91-99 (only peptide from listeriolysin O of Listeria monocytogenes, LLO91-99), GNP (empty gluconanoparticles), GNP-LLO91-99 (gluconanoparticles synthesized with the peptide from listeriolysin O of Listeria monocytogenes, LLO91-99), GNP-GAPDH1-22 (nanoparticles synthesized with the peptide from glyceraldehyde-3-phosphate dehydrogenase of Listeria monocytogenes, GAPDH1-22) or saline (NT).
Following 7 days preventative post-treatment, the tumors were established following inoculation with 5×10^6 cells of murine melanoma B16OVA in an intraperitoneal manner. Following 7 days post-established of the tumor, the mice were sacrificed and the recovered tumors were measured by means of a gauge and the tumors were analyzed by means of immunohistochemical staining. The results of the reduction of the tumor growth and their intraperitoneal position are shown in FIG. 4A and FIG. 4B and the results of the analysis of the immunohistochemical staining in FIG. 4C.

glioblastoma (RG-1) [3] = experiment: In vitro apoptosis-necrosis, flow cytometry annexin V-APC / 7-ADD; format: cell-based; details: 10 μg/ml, 16 hours
Procedure: 2.—In vitro apoptosis-necrosis. The different tumor cells (1×10^6 cells) are treated with 10 μg/ml of the GNP-LLO91-99 gold nanoparticles in culture plates, 16 hours prior to the apoptosis-necrosis analysis, including cells of each type of tumor without treatment with the gold nanoparticles (control). Following washing, the cells are analyzed by means of flow cytometry using two specific products, annexin V conjugated with the APC fluorochrome and the fluorescent marker for binding to DNA, 7-ADD (7-amino-actinomycin D). Apoptosis and necrosis in the tumor cells are analyzed by means of the differential marking with annexin V-APC and 7-ADD expressed as percentages. While the necrosis is indicated as the percentage of cells doubly marked with annexin V-APC and 7-ADD, the apoptosis is expressed as the percentage of cells marked only with annexin V.

[4] = tested on: hepatocarcinoma (Hepa 1-6); experiment: In vitro activation cell markers, flow cytometry; format: cell-based, murine; details: 10 μg/ml pre-treatment
Procedure: (§1) 1.—Tumor cells. The cells used are: Hepa1-6, murine hepatocarcinoma, TC-1, murine lung carcinoma; B16F10, murine melanoma; A-375, human melanoma; hamster melanoma (ATCC).
(§2) 3.—Study of in vitro activation cell markers. The markers of the cell surface of the different tumor cells (1×10^6 cells) that are pre-treated or that are not pre-treated with 10 μg/ml of the GNP-LLO91-99 gold nanoparticles similar to the apoptosis process are analyzed by means of flow cytometry using the following antibodies (Miltenyi Biotech): anti-CD86-V450, anti-CD80-FITC, anti-MHC-II-APC, CD11c-PE, anti-NCAM-PE, anti-PD-1-V450.

lung cancer cells (TC-1) = experiment: In vitro activation cell markers, flow cytometry; format: cell-based, murine; details: 10 μg/ml pre-treatment
Procedure: as §1, §2

glioblastoma (RG-1) [5] = experiment: In vitro activation cell markers, flow cytometry; format: cell-based; details: 10 μg/ml pre-treatment
Procedure: as §2

ovary tumor cells = experiment: Subcutaneous tumor transplant model (Example 9); format: in vivo, mice; details: subcutaneous transplants, C57BL/6, 50 μg/ml in-situ for 7 days

## GNP-LLO91-99: gluconanoparticles synthesized with the peptide from listeriolysin O of Listeria monocytogenes, LLO91-99 (GYKDGNEYI; also: gold glyconanoparticle conjugate; UniProt P13128 91-99, looked up, fragment)
Murine melanoma B16OVA [1]; combination therapy with anti-CTLA-4 (100 μg/mouse every 2 days), at 14 days
  tumor regression: up to 90%
Murine melanoma B16OVA [1]; combination therapy with anti-CTLA-4 (100 μg/mouse every 2 days), at 30 days
  tumor regression: up to 90%
Murine melanoma B16OVA [1]; combination with anti-PD-1 (100 μg/mouse every 2 days), at 14 days
  tumor regression: 100%
Murine melanoma B16OVA [1]; combination with anti-PD-1 (100 μg/mouse every 2 days), at 30 days
  tumor regression: 100%
Murine melanoma B16OVA [1]; monotherapy, 50 μg/ml in the tumors, 7 days
  tumor regression: 80%
Murine melanoma B16OVA [1]; monotherapy, 50 μg/ml in the tumors, at 14 days
  tumor regression: 90%
Murine melanoma B16OVA [1]; monotherapy, 50 μg/ml in the tumors, at 30 days
  tumor regression: 90%
Murine melanoma B16OVA [2]; 50 μg/ml intraperitoneal 7 days before i.p. B16OVA, adult C57BL/6, tumors measured 7 days after establishment
  prevention of tumor growth: 90%
Murine melanoma B16OVA [2]; immunohistochemical staining of recovered peritoneal tumors
  necrotizing foci in the melanomas: 60%
Murine melanoma B16OVA [2]; intraperitoneal B16OVA after preventive treatment
  position of the tumor / spreading to other organs: positioned intraperitoneally preventing its spreading to other organs
Glioblastoma (RG-1) [3]
  effect of inducing apoptosis: not as significant
  induction of tumor apoptosis and necrosis: induce both necrosis and apoptosis with the same percentages; also recorded: induce both tumor apoptosis and necrosis
[4]; Hepa 1-6
  expression of immune cell activation markers: boosted the expression of various activation markers such as MHC-I, MHC-II, CD80 and PD-1
[4]; hepatocarcinomas
  expression of PD-1: high expression of PD-1
Lung cancer cells (TC-1)
  expression of immune cell activation markers: only boosted the expression of MHC-I
Glioblastoma (RG-1) [5]
  expression of MHC-I: inhibition
  expression of MHC-II: no variation
  expression of NCAM-1: no variation
  expression of immune cell activation markers: no induction of expression of activation markers
Ovary tumor cells
  in vivo inhibitory effect of the tumor: does not cause any effect
